{"source": "patent US8906933B2", "about": "“Dihydropyrimidin-2(1H)-one compounds as neurokinin-3 receptor antagonists” (N30 Pharmaceuticals, Inc., priority 2010, dated 2014)", "key": {"human NK3 receptor [1]": {"target": "T1, human NK3 receptor (Homo sapiens (Human), UniProt P29371)", "T1 sequence (P29371 whole entry)": "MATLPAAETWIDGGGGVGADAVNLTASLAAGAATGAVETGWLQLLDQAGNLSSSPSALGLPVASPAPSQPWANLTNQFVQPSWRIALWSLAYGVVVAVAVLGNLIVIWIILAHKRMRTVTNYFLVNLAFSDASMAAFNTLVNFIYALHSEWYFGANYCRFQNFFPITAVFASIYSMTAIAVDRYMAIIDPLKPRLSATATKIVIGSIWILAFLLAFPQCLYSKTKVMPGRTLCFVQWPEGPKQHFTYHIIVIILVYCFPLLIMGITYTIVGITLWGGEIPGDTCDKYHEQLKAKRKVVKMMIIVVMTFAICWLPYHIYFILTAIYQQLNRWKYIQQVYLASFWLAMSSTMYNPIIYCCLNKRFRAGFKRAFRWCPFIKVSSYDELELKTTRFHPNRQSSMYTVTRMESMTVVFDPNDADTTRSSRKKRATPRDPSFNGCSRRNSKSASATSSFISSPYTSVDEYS", "assay": "Human NK3 receptor binding assay at 1 uM", "conditions": "1 μM test compound; [3H]SR142801, CHO cell membranes; read-out: percent inhibition at 1 μM", "procedure": "Antagonist activity was evaluated at a concentration of 1 μM for a representative subset of test compounds, and the results were expressed as the percent inhibition at that concentration.\nEach test compound was evaluated at a single concentration of 1 μM. […] The results are expressed as a percent of control specific binding ((measured specific binding/control specific binding)×100) obtained in the presence of the test compounds."}, "human NK3 receptor [2]": {"target": "T1, human NK3 receptor", "assay": "biochemical", "description": "Evaluation of the affinity of compounds for the human NK3 receptor from transfected CHO cells was performed using an antagonist radioligand binding assay. The antagonist activity of a representative subset of test compounds was evaluated over a range of concentrations, and the results were expressed as IC50 values.\nReceptor binding assays were performed using crude membranes prepared from CHO cells expressing human NK3 receptor. Osanetant (SR142801), a non-peptide NK3 antagonist, was used as a ligand, and SB222200 was used as a positive control reference compound. The assay was performed with cell membrane homogenates (24 μg protein) incubated for 120 min at 22° C. with 0.4 nM [^3H]SR142801 in the absence or presence of the test compound in a buffer containing 20 mM Hepes/NaOH (pH 7.4), 120 mM NaCl, 1 mM MnCl2, 0.01% bacitracin, 0.002% aprotinin and 0.1% BSA. Following incubation, the samples were filtered rapidly under vacuum through glass fiber filters (GF/B, Packard) that had been presoaked with 0.3% PEI. The filters were rinsed several times with ice-cold 50 mM Tris/HCl using a 96-sample cell harvester (Unifilter, Packard), dried, and counted for radioactivity in a scintillation counter (Topcount, Packard) using a scintillation cocktail (Microscint 0, Packard). […] The standard reference compound, SB222200, was tested in each experiment. Nonspecific binding was determined in the presence of 10 μM SB222200. The specific ligand binding to the receptor is defined as the difference between the total binding and the nonspecific binding. The IC50 values (concentration causing a half-maximal inhibition of control specific binding) and Hill coefficients (nH) were determined by non-linear regression analysis of the competition curves generated with mean replicate values using Hill equation curve fitting (Y=D+[(A−D)/(1+(C/C50)^nH)], where Y=specific binding, D=minimum specific binding, A=maximum specific binding, C=compound concentration, C50=IC50, and nH=slope factor). […] The inhibition constants (Ki) were calculated using the Cheng Prusoff equation (Ki=IC50/(1+(L/KD)), where L=concentration of radioligand in the assay, and KD=affinity of the radioligand for the receptor). A scatchard plot was used to determine the Kd."}, "GSNOR": {"target": "GSNOR (Homo sapiens (Human), UniProt P11766)", "sequence (P11766 whole entry)": "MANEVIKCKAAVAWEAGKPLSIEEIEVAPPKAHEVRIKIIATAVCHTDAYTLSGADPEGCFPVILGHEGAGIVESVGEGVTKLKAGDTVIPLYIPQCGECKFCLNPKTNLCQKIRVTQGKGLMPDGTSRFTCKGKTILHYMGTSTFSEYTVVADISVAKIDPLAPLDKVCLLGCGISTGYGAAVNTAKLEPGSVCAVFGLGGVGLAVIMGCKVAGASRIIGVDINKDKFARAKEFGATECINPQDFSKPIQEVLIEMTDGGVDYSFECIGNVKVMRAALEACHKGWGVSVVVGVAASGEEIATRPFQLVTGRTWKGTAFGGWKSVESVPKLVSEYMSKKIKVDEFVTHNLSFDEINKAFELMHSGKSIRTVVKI", "assay": "GSNOR IC50 (method in incorporated applications)", "assay_type": "biochemical"}, "human NK3 receptor [3]": {"target": "T1, human NK3 receptor", "assay": "Human NK3 receptor binding assay at 10 μM", "conditions": "10 μM test compound; [3H]SR142801, CHO cell membranes; read-out: percent inhibition at 10 μM", "procedure": "Antagonist activity was evaluated at a concentration of 10 μM for a representative subset of test compounds, and the results were expressed as the percent inhibition at that concentration.\nEach test compound was evaluated at a single concentration of 10 μM. […] The results are expressed as a percent of control specific binding ((measured specific binding/control specific binding)×100) obtained in the presence of the test compounds."}, "human NK3 receptor [4]": {"target": "T1, human NK3 receptor", "assay": "Human neurokinin NK3 receptor antagonist effect (agonist-induced Ca2+ mobilization, CHO cells)", "assay_type": "cell-based", "conditions": "10 uM; response to 1 nM [MePhe7]-NKB, CHO cells transfected with human NK3 receptor", "procedure": "This model evaluates the antagonist activity of compounds in CHO cells transfected with the human NK3 receptor. Antagonist activity is determined by measuring the effect of compounds on agonist-induced cytosolic Ca^2+ ion mobilization using a fluorimetric detection method.\nThe cells are suspended in DMEM buffer (Invitrogen) supplemented with 0.1% FCS and distributed in 96-well microplates at a density of 3×10^4 cells/well. The fluorescent probe (Calcium4, Molecular Device) is mixed with probenicid in HBSS buffer plus 20 mM Hepes (pH 7.4) (Invitrogen) and added into each well. The probe is allowed to equilibrate with the cells for 60 minutes at 37° C. followed by a 15 minute incubation at 22° C. Thereafter, the assay plates are positioned in a microplate reader (CellLux, PerkinElmer) and the test compound, reference antagonist or HBSS buffer is added. 5 minutes later, 1 nM [MePhe^7]-NKB or HBSS buffer (basal control) is added, and changes in fluorescence intensity are measured.\nThe standard reference antagonist is SB 222200, which is tested in each experiment at several concentrations to generate a concentration-response curve from which an IC50 value can be calculated."}, "human NK3 receptor [5]": {"target": "T1, human NK3 receptor", "assay": "Human neurokinin NK3 receptor agonist effect (Ca2+ mobilization, CHO cells)", "assay_type": "cell-based", "conditions": "highest tested concentration; CHO cells transfected with human NK3 receptor", "procedure": "This model evaluates the agonist activity of compounds in CHO cells transfected with the human NK3 receptor. Agonist activity is determined by measuring the effect of compounds on cytosolic Ca^2+ ion mobilization using a fluorimetric detection method.\nThe transfected CHO cells are suspended in DMEM buffer (Invitrogen) supplemented with 0.1% FCS, then distributed in 96-well microplates at a density of 3×10^4 cells/well. The fluorescent probe (Calcium4, Molecular Device) is mixed with probenicid in HBSS buffer plus 20 mM Hepes (pH 7.4) (Invitrogen) and added into each well. The probe is allowed to equilibrate with the cells for 60 minutes at 37° C. followed by a 15 minute incubation at 22° C. Thereafter, the assay plates are positioned in a microplate reader (CellLux, PerkinElmer) and the test compound, reference agonist or HBSS buffer (basal control) is added. Changes in fluorescence intensity, which varies proportionally to the free cytosolic Ca^2+ ion concentration, are then measured. For stimulated control measurements, [MePhe^7]-NKB at 10 nM is added in separate assay wells, and the results are expressed as a percent of the control response to 10 nM [MePhe^7]-NKB.\nThe standard reference agonist is [MePhe^7]-NKB, which is tested in each experiment at several concentrations to generate a concentration-response curve from which an EC50 value can be calculated."}}, "data": [{"smiles": "CCOc1cc(C2NC(=O)N(C)C(c3ccccc3)=C2c2ccccc2)cc([N+](=O)[O-])c1O", "note": "(stereo not drawn) [4-(3-ethoxy-4-hydroxy-5-nitrophenyl)-1-methyl-5,6-diphenyl-3,4-dihydropyrimidin-2(1H)-one]", "values": [{"measurement": "inhibition at 1 µM", "setting": "human NK3 receptor [1]", "result": "> 50", "unit": "%"}, {"measurement": "IC50", "setting": "human NK3 receptor [2]", "result": "≤ 1", "unit": "µM"}]}, {"smiles": "CCOc1cc([C@@H]2NC(=O)NC(c3ccccc3)=C2c2ccsc2)cc([N+](=O)[O-])c1O", "note": "[4-(3-ethoxy-4-hydroxy-5-nitrophenyl)-6-phenyl-5-(thiophen-3-yl)-3,4-dihydropyrimidin-2(1H)-one]", "values": [{"measurement": "IC50", "setting": "human NK3 receptor [2]", "result": 22, "unit": "µM"}]}, {"smiles": "CCOc1cc(C2NC(=O)NC(c3ccccc3)=C2c2cccc(Cl)c2)cc([N+](=O)[O-])c1O", "note": "(stereo not drawn) [5-(3-chlorophenyl)-4-(3-ethoxy-4-hydroxy-5-nitrophenyl)-6-phenyl-3,4-dihydropyrimidin-2(1H)-one]", "values": [{"measurement": "inhibition at 1 µM", "setting": "human NK3 receptor [1]", "result": "> 50", "unit": "%"}, {"measurement": "IC50", "setting": "human NK3 receptor [2]", "result": "≤ 1", "unit": "µM"}]}, {"smiles": "Cn1cc(C2=C(c3ccsc3)[C@H](c3ccc(C(=O)O)c(O)c3)NC(=O)N2)cn1", "note": "[2-hydroxy-4-(6-(1-methyl-1H-pyrazol-4-yl)-2-oxo-5-(thiophen-3-yl)-1,2,3,4-tetrahydropyrimidin-4-yl)benzoic acid]", "values": [{"measurement": "IC50", "setting": "GSNOR", "result": 0.023, "unit": "µM"}]}, {"smiles": "CCOc1cc(C2NC(=O)NC(c3ccccc3)=C2c2cccc(C)c2)cc([N+](=O)[O-])c1O", "note": "(stereo not drawn) [4-(3-ethoxy-4-hydroxy-5-nitrophenyl)-6-phenyl-5-m-tolyl-3,4-dihydropyrimidin-2(1H)-one]", "values": [{"measurement": "inhibition at 1 µM", "setting": "human NK3 receptor [1]", "result": "> 50", "unit": "%"}, {"measurement": "IC50", "setting": "human NK3 receptor [2]", "result": "≤ 1", "unit": "µM"}]}, {"smiles": "CCOc1cc(C2NC(=O)NC(c3cccc(OC)c3)=C2c2ccccc2)cc([N+](=O)[O-])c1O", "note": "(stereo not drawn) [4-(3-ethoxy-4-hydroxy-5-nitrophenyl)-6-(3-methoxyphenyl)-5-phenyl-3,4-dihydropyrimidin-2(1H)-one]", "values": [{"measurement": "inhibition at 10 µM", "setting": "human NK3 receptor [3]", "result": "> 50", "unit": "%"}, {"measurement": "inhibition at 1 µM", "setting": "human NK3 receptor [1]", "result": "> 50", "unit": "%"}]}, {"smiles": "CCOc1cc([C@@H]2NC(=O)NC(c3ccccc3)=C2c2ccccc2)cc([N+](=O)[O-])c1O", "note": "[4-(3-ethoxy-4-hydroxy-5-nitrophenyl)-5,6-diphenyl-3,4-dihydropyrimidin-2(1H)-one]", "values": [{"measurement": "IC50", "setting": "human NK3 receptor [2]", "result": 19, "unit": "µM"}]}, {"smiles": "CCOc1cc(C2C(c3ccccc3)=C(c3ccccc3)NC(=O)N2C)cc([N+](=O)[O-])c1O", "note": "(stereo not drawn) [4-(3-ethoxy-4-hydroxy-5-nitrophenyl)-3-methyl-5,6-diphenyl-3,4-dihydropyrimidin-2(1H)-one]", "values": [{"measurement": "inhibition at 1 µM", "setting": "human NK3 receptor [1]", "result": "> 50", "unit": "%"}, {"measurement": "IC50", "setting": "human NK3 receptor [2]", "result": "≤ 1", "unit": "µM"}]}, {"smiles": "CCOc1cc(C2C(c3ccccc3)=C(c3ccccc3)N(C)C(=O)N2C)cc([N+](=O)[O-])c1O", "note": "(stereo not drawn) [4-(3-ethoxy-4-hydroxy-5-nitrophenyl)-1,3-dimethyl-5,6-diphenyl-3,4-dihydropyrimidin-2(1H)-one]", "values": [{"measurement": "inhibition at 1 µM", "setting": "human NK3 receptor [1]", "result": "> 50", "unit": "%"}, {"measurement": "IC50", "setting": "human NK3 receptor [2]", "result": "≤ 0.1", "unit": "µM"}]}, {"smiles": "CCOc1cc([C@@H]2NC(=O)NC(c3cccnc3)=C2c2ccccc2)cc([N+](=O)[O-])c1O", "note": "[4-(3-ethoxy-4-hydroxy-5-nitrophenyl)-5-phenyl-6-(pyridin-3-yl)-3,4-dihydropyrimidin-2(1H)-one]", "values": [{"measurement": "IC50", "setting": "human NK3 receptor [2]", "result": 55, "unit": "µM"}]}, {"smiles": "Cn1cc(C2=C(c3ccsc3)C(c3ccc(C(=O)O)c(O)c3)NC(=O)N2)cn1", "note": "(racemic) [2-hydroxy-4-(6-(1-methyl-1H-pyrazol-4-yl)-2-oxo-5-(thiophen-3-yl)-1,2,3,4-tetrahydropyrimidin-4-yl)benzoic acid]", "values": [{"measurement": "IC50", "setting": "GSNOR", "result": 0.039, "unit": "µM"}]}, {"smiles": "CCOc1cc([C@H]2NC(=O)NC(c3ccccc3)=C2c2ccccc2)cc([N+](=O)[O-])c1O", "note": "[(R)-4-(3-ethoxy-4-hydroxy-5-nitrophenyl)-5,6-diphenyl-3,4-dihydropyrimidin-2(1H)-one]", "values": [{"measurement": "IC50", "setting": "human NK3 receptor [2]", "result": 0.11, "unit": "µM"}]}, {"smiles": "CCOc1cc(C2NC(=O)NC(c3ccccc3)=C2c2ccccc2)cc2oc(=O)[nH]c12", "note": "(stereo not drawn) [4-ethoxy-6-(2-oxo-5,6-diphenyl-1,2,3,4-tetrahydropyrimidin-4-yl)benzo[d]oxazol-2(3H)-one]", "values": [{"measurement": "inhibition at 1 µM", "setting": "human NK3 receptor [1]", "result": "> 50", "unit": "%"}, {"measurement": "IC50", "setting": "human NK3 receptor [2]", "result": "≤ 1", "unit": "µM"}]}, {"smiles": "CCOc1cc(C2NC(=O)NC(c3ccccc3)=C2C2CCCCC2)cc([N+](=O)[O-])c1O", "note": "(stereo not drawn) [5-cyclohexyl-4-(3-ethoxy-4-hydroxy-5-nitrophenyl)-6-phenyl-3,4-dihydropyrimidin-2(1H)-one]", "values": [{"measurement": "inhibition at 10 µM", "setting": "human NK3 receptor [3]", "result": "> 50", "unit": "%"}, {"measurement": "inhibition at 1 µM", "setting": "human NK3 receptor [1]", "result": "> 50", "unit": "%"}, {"measurement": "antagonist effect", "setting": "human NK3 receptor [4]", "result": "antagonist effect was seen"}, {"measurement": "agonist effect", "setting": "human NK3 receptor [5]", "result": "no effect was seen"}, {"measurement": "IC50", "setting": "human NK3 receptor [2]", "result": "≤ 0.1", "unit": "µM"}]}, {"smiles": "CCOc1cc([C@H]2NC(=O)NC(c3cccnc3)=C2c2ccccc2)cc([N+](=O)[O-])c1O", "note": "[(R)-4-(3-ethoxy-4-hydroxy-5-nitrophenyl)-5-phenyl-6-(pyridin-3-yl)-3,4-dihydropyrimidin-2(1H)-one]", "values": [{"measurement": "IC50", "setting": "human NK3 receptor [2]", "result": 0.7, "unit": "µM"}]}, {"smiles": "COCCOc1cc(C2NC(=O)NC(c3ccccc3)=C2c2ccccc2)cc([N+](=O)[O-])c1O", "note": "(stereo not drawn) [4-(4-hydroxy-3-(2-methoxyethoxy)-5-nitrophenyl)-5,6-diphenyl-3,4-dihydropyrimidin-2(1H)-one]", "values": [{"measurement": "inhibition at 10 µM", "setting": "human NK3 receptor [3]", "result": "> 50", "unit": "%"}, {"measurement": "inhibition at 1 µM", "setting": "human NK3 receptor [1]", "result": "> 50", "unit": "%"}]}, {"smiles": "COc1cc(C2NC(=O)NC(c3ccccc3)=C2c2ccccc2)cc([N+](=O)[O-])c1O", "note": "(stereo not drawn) [4-(4-hydroxy-3-methoxy-5-nitrophenyl)-5,6-diphenyl-3,4-dihydropyrimidin-2(1H)-one]", "values": [{"measurement": "inhibition at 10 µM", "setting": "human NK3 receptor [3]", "result": "> 50", "unit": "%"}, {"measurement": "inhibition at 1 µM", "setting": "human NK3 receptor [1]", "result": "> 50", "unit": "%"}]}, {"smiles": "CCOc1cc(C2NC(=O)NC(c3ccccc3)=C2c2ccccc2)cc(C#N)c1O", "note": "(stereo not drawn) [3-ethoxy-2-hydroxy-5-(2-oxo-5,6-diphenyl-1,2,3,4-tetrahydropyrimidin-4-yl)benzonitrile]", "values": [{"measurement": "inhibition at 10 µM", "setting": "human NK3 receptor [3]", "result": "> 50", "unit": "%"}, {"measurement": "inhibition at 1 µM", "setting": "human NK3 receptor [1]", "result": "> 50", "unit": "%"}, {"measurement": "IC50", "setting": "human NK3 receptor [2]", "result": "≤ 1", "unit": "µM"}]}, {"smiles": "CCOc1cc([C@H]2NC(=O)NC(c3ccccc3)=C2c2ccsc2)cc([N+](=O)[O-])c1O", "note": "[(R)-4-(3-ethoxy-4-hydroxy-5-nitrophenyl)-6-phenyl-5-(thiophen-3-yl)-3,4-dihydropyrimidin-2(1H)-one]", "values": [{"measurement": "IC50", "setting": "human NK3 receptor [2]", "result": 1.4, "unit": "µM"}]}, {"smiles": "CCOc1cc(C2NC(=O)NC(c3ccccc3)=C2c2ccccc2F)cc([N+](=O)[O-])c1O", "note": "(stereo not drawn) [4-(3-ethoxy-4-hydroxy-5-nitrophenyl)-5-(2-fluorophenyl)-6-phenyl-3,4-dihydropyrimidin-2(1H)-one]", "values": [{"measurement": "inhibition at 10 µM", "setting": "human NK3 receptor [3]", "result": "> 50", "unit": "%"}, {"measurement": "inhibition at 1 µM", "setting": "human NK3 receptor [1]", "result": "> 50", "unit": "%"}]}]}
